Experiments:
[1] = Weight gain (uptake of moisture) at 30° C. and 60% humidity as per ASTM (1996) method; type: physicochemical
Description: (§1) It has been observed that the granular compositions according to the present inventions are dry solids as evidenced by the appearance. […] Further, the granules were appeared as dry solids after 6 months of storage. The inventors of the present invention confirmed the stability of the granules by investigating the weight gain of the compositions and by calculating the relative weight gain with respect to glufosinate salt. The weight gain of the granular compositions according to the present invention were investigated at 30° C. and 60% humidity as per ASTM (1996) method and the results are summarized in the below table (Table 3).
Relative % weight gain of the composition is calculated using the formula given below:
[formula] [formula] • wherein X is glufosinate ammonium technical

[2] = Physical appearance in open containers at ambient conditions; type: physicochemical
Description: The appearances for the granular compositions prepared according to the present invention were investigated in open containers at ambient conditions.
as §1

SMILES: CP(=O)(O)CCC(N)C(=O)O (stereo not shown) [Glufosinate ammonium, 2-amino-4-[hydroxy(methyl)phosphinoyl]butyric acid]
- % weight gain after 24 hrs ([1]; 24 hrs): 1.834%
- Weight of sample after 24 hrs ([1]; 24 hrs): 1.0219 g
- Relative % weight gain after 24 hrs ([1]; 24 hrs, relative to glufosinate ammonium technical): 100%
- Weight of sample ([1]; start): 1.0035 g
- Appearance at 0 hrs ([2]; 0 hrs): Dry solid
- Appearance After 24 hrs ([2]; 24 hrs): Wet solid
- Appearance After 72 hrs ([2]; 72 hrs): Liquid

Source: patent US10925280B2, “Solid agrochemical compositions” (UPL LIMITED, priority 2015, dated 2021)
